US20130071897A1, “METHOD FOR CONTROLLING UNDESIRABLE BYPRODUCTS FORMATION CAUSED BY CONTAMINATING ORGANISMS IN THE PRODUCTION OF ETHANOL FROM SYNGAS” (COSKATA, INC., priority 2011, published 2013)
“And” between values parts separate entries of the source, which are not always exact repeats. Equal values may be shown once.

Legend:
acyl-CoA dehydrogenases = experiment: In vitro acyl-CoA dehydrogenase ferrocenium assay with C. tyrobutyricum cell-free extract; type: biochemical; conditions: 0.5 to 10 mM compound; rate of ferrocenium reduction at 300 nm
Procedure: Lehman, et al., in An Acyl-Coenzyme A Dehydrogenase Assay Utilizing the Ferricenium Ion, Analytical Biochemistry 186, pages 280-284 (1990), disclose an in vitro assay screening technique for acyl-CoA dehydrogenases for determining enzyme deficiencies in children. An adaptation of this technique was explored as a potential screening method for ascertaining potential butyrogen inhibitors. An aqueous assay liquor is prepared such that each 1 milliliter sample contains 50 mM of TrisHCl buffer (pH 7.6); 0.05 mM of butyryl-CoA; 5 micromoles of FAD (flavin adenine dinucleotide) and 0.4 mM of ferrocenium. Whole cells of C. tyrobutyricum are lysed and are added to the assay liquor. […] The abbreviation mM stands for millimolar. To assure metabolic consistency among the samples a master batch of C. tyrobutyricum is prepared and harvested at the early log growth stage (approximate O.D. of between about 0.5 and 0.7). The master batch fermentation broth is centrifuged and rinsed with 50 mM TrisHCl buffer (pH 7.6), centrifuged and reconstituted with 50 mM TrisHCl buffer (pH 7.6) to be 10 times more concentrated than the original master batch. Aliquots of about 0.5 milliliter are placed into cryogenic vials (about 1.8 milliliter capacity) and frozen at −80° C. until needed. When needed, a vial is placed in an anoxic Coy chamber and allowed to thaw to room temperature. Once thawed, the cells are added to a 15 mL centrifuge tube and diluted with 0.5 mL of a 2 mg/mL solution of lysozyme (purchased from Aldrich) in 50 mM Tris-HCl (final concentration of lysozyme is about 1 mg/mL). The centrifuge tube is inverted 5 times, removed from the Coy chamber and allowed to incubate at 37° C. for 30 minutes. […] The centrifuge tube is vortexed in the Coy chamber for about 30 seconds, removed from the chamber and centrifuged for 15 minutes at 4000 rpm and 4° C. The tube is returned to the chamber and the cell-free extract (supernatant) is used to prepare the above described samples. The samples are analyzed at various times by absorbance spectroscopy at 300 nm using a Thermo Scientific Evolution 300 UV/Vis spectrophotometer with a 7-cuvette carousel and Starna quartz cuvettes with a septum cap to determine the amount of reduction of ferrocenium. The sample is at laboratory temperature and is maintained under anaerobic conditions. Typically, the absorbance is measured over a period of about 10 to 20 minutes which is sufficient time for the absorbance to stop changing. A linear slope of the rate of change in absorbance during the period that the absorbance is changing is determined using Microsoft Excel® 2010 linear regression to generate a straight line from the data points. The more gradual the slope, the better inhibition because the enzyme is slower at reducing the ferrocenium in the assay sample. A dose-response curve is then determined for each compound by plotting the linear slope against the respective compound concentration. A linear slope is then determined for each compound using Microsoft Excel® 2010 linear regression to generate a straight line from the data points. The steeper the dose-response slope, the better the inhibition because the increased concentration of the compound causes more of a difference in enzyme activity. The dose-response slope generally has a broad standard of deviation due to experimental imprecision and slope determinations.

C. autoethanogenum = experiment: Toxicity to C. autoethanogenum by batch fermentation using syngas substrate, optical density; type: cell-based, Clostridium autoethanogenum; conditions: for O.D. Response of Various Inhibitors on C. autoethanogenum: Table 21, one value per compound; for O.D. Response to Various Inhibitors: duplicates A and B, amount not given
Procedure: In this example various crotonate-like compounds on are evaluated for toxicity to C. autoethanogenum by batch fermentation using syngas substrate. The batch fermentations are conducted by anoxically filling 100 mL serum bottles with 10 mL of media having the composition given in Tables 12 and 13. Duplicate runs are conducted for each concentration. The compounds are: • C-1 Ethyl 4,4,4-trifluoro-3-(trifluoromethyl)crotonate • C-4 4,4,4-Trifluorocrotonamide • C-9 Ethyl 4,4,4-Trifluoro-3-(amino)crotonate • C-18 3 trifluoromethyl-4-methoxybenzoate.
Each bottle is inoculated with 1.0 mL of seed culture inoculum from an active fermenter using syngas substrate and containing Clostridium autoethanogenum, which inoculum has an OD of about 4.92 (which upon a 10 times dilution provides a starting OD for the fermentation of about 0.49). The bottles are gased with syngas to about 100 kilopascals and maintained at a temperature of 37° C. The bottles are regassed with syngas every 8 to 12 hours. The syngas has the approximate composition set forth in Examples 6 to 10. Twenty four hours after inoculation of the bottles with the bacteria, the compounds are added to different bottles as a solution in 50 μL of N-methylpyrrolidone in the amounts indicated in Tables 20 and 21. The fermentation process is allowed to progress at 37° C. At selected intervals of time, bacterial growth is measured by reading the OD of the fermentation liquid using a Thermo Spectronic Genesys 20 spectrophotometer. Optical density is measured by anoxically removing an aliquot of fermentation liquid and adding it to a disposable cuvette. OD's ranging between 0.01 and 0.4 are measured using fermentation liquid directly, while OD's greater than 0.4 are measure after performing a 1/10 dilution with water.

[1] = 0 Hours, added 24 h after inoculation
[2] = 2.5 Hours, added 24 h after inoculation
[3] = 6.5 Hours, added 24 h after inoculation
[4] = 24.5 Hours, added 24 h after inoculation

O=C(O)c1cccc(C(F)(F)F)c1 [3-(Trifluoromethyl)benzoate]
Dose-Response Slope (acyl-CoA dehydrogenases): 6

NC(=O)c1ccc(F)c(C(F)(F)F)c1 [3-Trifluoromethyl-4-fluorobenzamide]
Dose-Response Slope (acyl-CoA dehydrogenases): 5

COc1ccc(C(N)=O)cc1C(F)(F)F [3-Trifluoromethyl-4-methoxybenzamide]
Dose-Response Slope (acyl-CoA dehydrogenases): 12

NC(=O)/C=C/C(F)(F)F [Compound C-4, 4,4,4-Trifluorocrotonamide]
O.D. Response of Various Inhibitors on C. autoethanogenum (C. autoethanogenum; [1]): 0.49 | O.D. Response of Various Inhibitors on C. autoethanogenum (C. autoethanogenum; [2]): 0.41 | O.D. Response of Various Inhibitors on C. autoethanogenum (C. autoethanogenum; [3]): 0.42 | O.D. Response of Various Inhibitors on C. autoethanogenum (C. autoethanogenum; [4]): 1.06 | O.D. Response of Various Inhibitors on C. autoethanogenum (C. autoethanogenum; 30.5 Hours): 1.32 | O.D. Response of Various Inhibitors on C. autoethanogenum (C. autoethanogenum; 47.5 Hours): 1.67 | O.D. Response of Various Inhibitors on C. autoethanogenum (C. autoethanogenum; 56 Hours): 1.72 | O.D. Response to Various Inhibitors (C. autoethanogenum; [1]): 0.49 | O.D. Response to Various Inhibitors (C. autoethanogenum; [2]): 0.40 and 0.42 | O.D. Response to Various Inhibitors (C. autoethanogenum; [3]): 0.4 and 0.43 | O.D. Response to Various Inhibitors (C. autoethanogenum; [4]): 1.03 and 1.09 | O.D. Response to Various Inhibitors (C. autoethanogenum; 30.5 Hours, added 24 h after inoculation): 1.31 and 1.33 | O.D. Response to Various Inhibitors (C. autoethanogenum; 47.5 Hours, added 24 h after inoculation): 1.7 and 1.64 | Dose-Response Slope (acyl-CoA dehydrogenases): 8

CCOC(=O)c1ccccc1C(F)(F)F [Ethyl 2-(trifluoromethyl)benzoate]
Dose-Response Slope (acyl-CoA dehydrogenases): 8
